Measurements taken from article PMC10303012, “Volatile Short-Chain Aliphatic Aldehydes Act as Taste Modulators through the Orally Expressed Calcium-Sensing Receptor CaSR” (Molecules, 2023).

How the values were obtained:
Format in all cases: cell-based
[1] = biological target: T1, calcium-sensing receptor CaSR (Homo sapiens, UniProt P41180); experiment: calcium mobilization assay in PEAKrapid cells transiently expressing human CaSR, with mock control
T1 sequence (P41180 20-1078): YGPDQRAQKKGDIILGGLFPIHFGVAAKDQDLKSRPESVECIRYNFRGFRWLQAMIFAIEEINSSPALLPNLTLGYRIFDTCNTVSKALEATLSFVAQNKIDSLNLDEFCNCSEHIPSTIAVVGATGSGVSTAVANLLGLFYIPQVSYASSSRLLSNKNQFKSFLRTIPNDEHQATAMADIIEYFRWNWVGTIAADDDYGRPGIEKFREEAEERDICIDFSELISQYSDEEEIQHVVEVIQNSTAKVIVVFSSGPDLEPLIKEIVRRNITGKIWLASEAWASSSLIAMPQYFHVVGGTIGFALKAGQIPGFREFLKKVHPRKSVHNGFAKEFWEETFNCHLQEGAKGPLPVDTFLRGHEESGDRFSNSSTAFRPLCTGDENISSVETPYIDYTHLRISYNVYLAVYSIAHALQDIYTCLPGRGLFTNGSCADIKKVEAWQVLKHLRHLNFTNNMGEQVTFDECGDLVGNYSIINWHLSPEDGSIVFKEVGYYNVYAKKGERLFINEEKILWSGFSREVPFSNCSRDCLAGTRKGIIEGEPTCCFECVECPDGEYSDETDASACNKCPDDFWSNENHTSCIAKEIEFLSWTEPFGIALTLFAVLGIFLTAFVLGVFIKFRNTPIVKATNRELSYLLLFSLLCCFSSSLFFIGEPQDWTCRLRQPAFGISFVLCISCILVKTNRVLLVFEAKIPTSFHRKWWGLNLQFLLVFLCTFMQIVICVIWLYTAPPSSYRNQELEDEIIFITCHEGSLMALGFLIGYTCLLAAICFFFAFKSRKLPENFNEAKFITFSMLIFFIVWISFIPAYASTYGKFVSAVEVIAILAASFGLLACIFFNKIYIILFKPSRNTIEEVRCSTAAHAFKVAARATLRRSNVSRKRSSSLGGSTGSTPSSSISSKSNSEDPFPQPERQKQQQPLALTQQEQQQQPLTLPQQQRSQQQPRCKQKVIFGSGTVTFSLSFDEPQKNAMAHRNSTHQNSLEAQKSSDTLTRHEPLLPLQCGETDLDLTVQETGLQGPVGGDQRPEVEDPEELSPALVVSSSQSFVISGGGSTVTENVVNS

[2] = biological target: T1, calcium-sensing receptor CaSR; experiment: as above; remark: listed apart in the source
[3] = biological target: T1, calcium-sensing receptor CaSR; experiment: calcium mobilization assay in PEAKrapid cells transiently expressing human CaSR; potentiation of CaCl2 response at […]

In the case of `CC(C)C=O` [isobutylaldehyde], the “calcium mobilization assay in PEAKrapid cells transiently expressing human CaSR,” value (“calcium mobilization assay” for short) [1] is reported as “CaSR was activated by propionaldehyde (A,I), butanal (B,I), isobutylaldehyde (C,I)”.

`CC(C)CC=O` [IVAH, isovaleraldehyde] gave an EC50 [2] of 681 µM.

`CCC=O` [propionaldehyde] was tested, and the “calcium mobilization assay” value [1] was “CaSR was activated by propionaldehyde (A,I)”.

For `CCCCC=O` [pentanal], the “calcium mobilization assay” value [1] was 2-methylbutylaldehyde (D,I), pentanal (E,I), hexanal (F,I).

In the case of `CSCCC=O` [MTN, methional], the “calcium mobilization assay” value [3] is reported as “only methional activated CaSR, while neither of the methional analogues tested activated CaSR”.

With `CCCC=O` [butanal] the “calcium mobilization assay” value [1] was “CaSR was activated by propionaldehyde (A,I), butanal (B,I)”.

In the case of `CCCCCC=O` [hexanal], the “calcium mobilization assay” value [1] is reported as 2-methylbutylaldehyde (D,I), pentanal (E,I), hexanal (F,I).

In the case of `CCC(C)C=O` (centres unmarked) [2-methylbutylaldehyde], the “calcium mobilization assay” value [1] is reported as “CaSR was activated by propionaldehyde (A,I), butanal (B,I), isobutylaldehyde (C,I), 2-methylbutylaldehyde (D,I)”.
